The test concerns the target T1, human polymorphonuclear leukocyte elastase (Homo sapiens, UniProt P08246).
T1 construct: Crude extract of human polymorphonuclear leukocytes (PMN) containing elastase activity; endogenous in cells; host or cells: human polymorphonuclear leukocytes (crude extract)
T1 sequence (P08246 30-247 limits assumed): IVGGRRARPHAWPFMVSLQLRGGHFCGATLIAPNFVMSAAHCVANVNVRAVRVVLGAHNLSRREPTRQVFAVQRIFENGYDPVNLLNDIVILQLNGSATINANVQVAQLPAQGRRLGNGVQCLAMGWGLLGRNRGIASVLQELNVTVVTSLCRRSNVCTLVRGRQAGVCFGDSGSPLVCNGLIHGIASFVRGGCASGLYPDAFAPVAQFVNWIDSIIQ
The test can be described thus: Inhibition of human polymorphonuclear leukocyte (granulocyte) elastase via hydrolysis of Boc-AAPAN or Boc-AAPVN. It is filed as biochemical. To be noted: for Ki / ID50, effective dosage for 50% inhibition of the enzyme activity two minutes after time zero: Table I; for Ki: read-out: Ki, concentration of the inhibitor giving 50% of the control enzyme activity; for kobs/I, second order rate constant of inactivation of the enzyme: Table IV; for ID50, effective dosage for 50% inhibition of the enzyme activity two minutes after time zero: 2 min after time zero, crude PMN extract, pH 7.5.

Setting [1] is: pH 7.5, Table III, (per mole per second), read-out: kobs/I, second order rate constant of inactivation of the enzyme.
The mark [2] stands for this setting: pH 7.5, Table II, (per mole per second), read-out: kobs/I, second order rate constant of inactivation of the enzyme.
Setting [3] is: pH 7.5, read-out: kobs/I, second order rate constant of inactivation of the enzyme.
Where [4] appears, read: pH 7.5, Table IV, (per mole per second), read-out: kobs/I, second order rate constant of inactivation of the enzyme.
The mark [5] stands for this setting: pH 7.5, Table I, read-out: kobs/I, second order rate constant of inactivation of the enzyme.
Setting [6] is: pH 7.5, Table VI, (per mole per second), read-out: kobs/I, second order rate constant of inactivation of the enzyme.

Where two headings read alike, the source gives them in different places.

Experimental: Enzyme Assays for the Inhibition of Human Polymorphonuclear Leukocyte Elastase Via Hydrolysis of N-t-Boc-alanyl-alanyl-prolylalanine-p-nitroanilide (Boc-AAPAN) or N-t-Boc-alanyl-prolylvaline-p-nitroanilide (Boc-AAPVN) Reagent:
0.05M TES (N-tris[hydroxymethyl]methyl-2-amino-ethanesulfonic acid) Buffer, pH 7.5.
0.2 mM Boc-AAPAN or Boc-AAPVN.
To prepare substrate, the solid was first dissolved in 10.0 ml DMSO. Buffer at pH 7.5 was then added to a final volume of 100 ml.
Crude extract of human polymorphonuclear leukocytes (PMN) containing elastase activity.
Inhibitors (azetidinones) to be tested dissolved in DMSO just before use.
To 1.0 ml of 0.2 mM Boc-AAPAN in a cuvette, 0.01-0.1 ml of DMSO with or without inhibitor was added. After mixing, a measurement was taken at 410 mμ to detect any spontaneous hydrolysis due to presence of test compound. 0.05 Milliliters of PMN extract was then added and the ΔOD/min at 410 mμ was measured and recorded. Beckman model 35 spectrophotometer was used.
Results were also expressed as Ki, the micromolar concentration of the inhibitor (μM) giving 50% of the control enzyme activity; or as ^k obs/I which is the second order rate constant in per mole per second for inactivation of the enzyme.
The elastase activity in the crude PMN extract may vary from one preparation to another. A control of each new batch is run, and the volume added in the assay procedure is adjusted according to activity.

Consider `CCC1(CC)C(=O)N(C(=O)NCc2ccc(C)cc2)C1Oc1ccc(C(=O)O)c(O)c1` (centres unmarked), for which the kinact/KI under setting [1] was 9250 M⁻¹ s⁻¹.

As for `CCC1(CC)C(=O)N(C(=O)NCc2ccc(-c3ccccc3)cc2)C1Oc1ccc(CC(=O)O)cc1` (centres unmarked), the kinact/KI under setting [1] came out at 28900 M⁻¹ s⁻¹.

Turning to `CCC1(CC)C(=O)N(C(=O)NCc2ccc(C)c(C)c2)C1Oc1ccc(C(O)C(=O)O)cc1` (centres unmarked), under setting [1], the kinact/KI came to 17600 M⁻¹ s⁻¹. The same measure, in the same setting: the same measure for `CCC1(CC)C(=O)N(C(=O)NCc2ccc(S(C)(=O)=O)cc2)C1Oc1ccc(C(=O)O)cc1` (centres unmarked): 3350 M⁻¹ s⁻¹. Turning to `CCC1(CC)C(=O)N(C(=O)NCc2ccc(C)c(C)c2)C1Oc1ccc(C(=O)O)cc1` (centres unmarked), the kinact/KI under setting [1] was 20600 M⁻¹ s⁻¹. The same measure, in the same setting: the figure for `CCC1(CC)C(=O)N(C(=O)NCc2ccc3c(c2)CCCC3)C1Oc1ccc(C(=O)O)cc1` (centres unmarked) is 62900 M⁻¹ s⁻¹. Still for that read-out and setting: the same measure for `CCC1(CC)C(=O)N(C(=O)NCc2ccc(Cc3ccccc3)cc2)C1Oc1ccc(C(=O)O)cc1` (centres unmarked): 8030 M⁻¹ s⁻¹; for `CCC1(CC)C(=O)N(C(=O)NCc2ccc(OCc3ccccc3)cc2)C1Oc1ccc(C(=O)O)cc1` (centres unmarked): 12000 M⁻¹ s⁻¹; for `CCC1(CC)C(=O)N(C(=O)NCc2ccc(OC)c(C)c2)C1Oc1ccc(C(=O)O)cc1` (centres unmarked): 13100 M⁻¹ s⁻¹. Consider `CCC1(CC)C(=O)N(C(=O)NCc2ccc(-c3cccc(C(=O)O)c3)cc2)C1Oc1ccc(C(=O)O)cc1` (centres unmarked), for which the kinact/KI under setting [1] stood at 14700 M⁻¹ s⁻¹. Still for that read-out and setting: the figure for `CCC1(CC)C(=O)N(C(=O)NCc2ccc3cc(C(=O)O)ccc3c2)C1Oc1ccc(C(N)=O)cc1` (centres unmarked) is 40600 M⁻¹ s⁻¹; for `CCC1(CC)C(=O)N(C(=O)NCc2ccccc2)C1Sc1nc[nH]n1` (centres unmarked) it is 116 M⁻¹ s⁻¹; for `CCC1(CC)C(=O)N(C(=O)NCc2ccccc2)C1Sc1nnnn1C` (centres unmarked) it is 3660 M⁻¹ s⁻¹. For the molecule `CCC1(C)C(=O)N(C(=O)NCc2ccc(OC)c(OC)c2)C1Oc1ccc(C(=O)O)cc1` (centres unmarked), the kinact/KI under setting [2] is 11300 M⁻¹ s⁻¹. For `CCCC1(C)C(=O)N(C(=O)NCc2ccccc2)C1Oc1ccc(C(=O)O)cc1` (centres unmarked), under setting [3], the kinact/KI worked out at 1900 M⁻¹ s⁻¹. Regarding `CCC[C@@H](NC(=O)N1C(=O)C(CC)(CC)C1Oc1ccc(CC(=O)O)cc1)c1ccc2occc2c1` (some centres unmarked), under setting [4], the kinact/KI was 847000 M⁻¹ s⁻¹.

For the molecule `CCOC(=O)c1ccc(COC(=O)N2C(=O)C(CC)(CC)C2Oc2ccc(C(=O)O)cc2)cc1` (centres unmarked), the kinact/KI under setting [4] amounted to 14300 M⁻¹ s⁻¹. Same read-out and setting: the same measure for `CCC1(C)C(=O)N(C(=O)N2CCc3ccccc3C2)C1Oc1ccc(C(=O)O)cc1` (centres unmarked): 4380 M⁻¹ s⁻¹. In the case of `CCC1C(=O)N(C(=O)N(CC)Cc2ccccc2)C1Oc1ccc(C(=O)O)cc1` (centres unmarked), under setting [4], the kinact/KI is 83000 M⁻¹ s⁻¹. For `CCC1C(=O)N(C(=O)N(Cc2ccccc2)Cc2ccccc2)C1Oc1ccc(C(=O)O)cc1` (centres unmarked), the kinact/KI under setting [4] was found to be 5980 M⁻¹ s⁻¹. Still for that read-out and setting: the figure for `CCOC(=O)c1ccc(COC(=O)N2C(=O)C(CC)C2Oc2ccc(C(=O)O)cc2)cc1` (centres unmarked) is 227000 M⁻¹ s⁻¹. In the case of `CC[C@H]1C(=O)N(S(=O)(=O)c2ccc(C)cc2)[C@H]1C(=O)N1CCCC1` (relative stereo), the Ki is 27.7 µM. Also, the kinact/KI under setting [3] was 541 M⁻¹ s⁻¹.

Take `CC[C@H]1C(=O)N(S(=O)(=O)c2ccc(C)cc2)[C@H]1C(=O)N(C)CC(=O)O` (relative stereo): the Ki was determined as 22 µM. Also, under setting [3], the kinact/KI came to 165 M⁻¹ s⁻¹. On to `CC[C@H]1C(=O)N(S(=O)(=O)c2ccc(C)cc2)[C@H]1C(=O)OCc1ccc(C(=O)O)cc1` (relative stereo), for which the Ki was 4.2 µM. For the same molecule, the kinact/KI under setting [3] turned out to be 299 M⁻¹ s⁻¹.

Consider `CC[C@H]1C(=O)N(S(=O)(=O)c2ccc(C)cc2)[C@H]1C(=O)OCC(=O)O` (relative stereo), for which, under setting [5], the kinact/KI was determined as 1550 M⁻¹ s⁻¹. Still for that read-out and setting: the same measure for `CCOC(=O)N1C(=O)[C@H](CC)[C@@H]1OCC(=O)O` (relative stereo): 796 M⁻¹ s⁻¹.

Take `CCOC(=O)N1C(=O)[C@H](CC)[C@H]1OCC(=O)NCC(=O)O` (relative stereo): the kinact/KI under setting [5] turned out to be 1000 M⁻¹ s⁻¹.

Consider `CCOC(=O)N1C(=O)[C@H](CC)[C@H]1OCC(=O)O` (relative stereo), for which the kinact/KI under setting [5] is 512 M⁻¹ s⁻¹. As for `CCOC(=O)N1C(=O)[C@H](CC)[C@H]1OC(C)C(=O)O` (relative stereo), under setting [5], the kinact/KI is 346 M⁻¹ s⁻¹.

On to `CC[C@H]1C(=O)N(C(C)=O)[C@@H]1Oc1ccc(C(=O)O)cc1` (relative stereo), for which the Ki turned out to be 3.4 µM. Also, the kinact/KI under setting [3] is 8730 M⁻¹ s⁻¹. `CC[C@H]1C(=O)N(C(=O)NC)[C@@H]1Oc1ccc(C(=O)O)cc1` (relative stereo): the Ki amounted to 16.5 µM. `CCOC(=O)N1C(=O)[C@H](CC)[C@H]1Oc1ccc(C(=O)O)cc1` (relative stereo): the Ki amounted to 2.1 µM. Besides, the kinact/KI under setting [3] was found to be 8680 M⁻¹ s⁻¹. On to `CCC[C@H]1C(=O)N(C(=O)OCC)[C@@H]1OCC(=O)O` (relative stereo), for which, under setting [5], the kinact/KI came to 1500 M⁻¹ s⁻¹. As to `CCOC(=O)[C@@H]1[C@@H](CC)C(=O)N1S(=O)(=O)c1ccc([N+](=O)[O-])cc1` (relative stereo) [4-Carboethoxy-3-ethyl-1-(p-nitrobenzenesulfonyl)-azetidin-2-one], the kinact/KI under setting [3] is 39300 M⁻¹ s⁻¹. On the same count and under the same terms, the figure for `CCOC(=O)[C@H]1[C@@H](CC)C(=O)N1S(=O)(=O)c1ccc([N+](=O)[O-])cc1` (relative stereo) [4-Carboethoxy-3-ethyl-1-(p-nitrobenzenesulfonyl)-azetidin-2-one] is 3920 M⁻¹ s⁻¹. As for `CC[C@H]1C(=O)N(C(=O)c2ccccc2)[C@H]1OC(C)=O` (relative stereo) [Table I: H; C2 H5 (cis); OCOCH3; COPh], the Ki is 0.14 µM.

For `CC[C@H]1C(=O)N(C(C)=O)[C@H]1OC(=O)c1ccccc1` (relative stereo) [Table I: H; C2 H5 (cis); OCOPh; COCH3], the Ki is 0.21 µM. Also, the kinact/KI under setting [3] was found to be 28500 M⁻¹ s⁻¹. In the same order, the values of `CCO[C@@H]1[C@@H](CC)C(=O)N1C(C)=O` (relative stereo) [Table I: H; C2 H5 (trans); OC2 H5; COCH3] are 11.9 µM and 1670 M⁻¹ s⁻¹. As for `CC[C@H]1C(=O)N(C(C)=O)[C@@H]1OC(=O)c1ccccc1` (relative stereo) [Table I: H; C2 H5 (trans); OCOPh; COCH3], the Ki was 0.19 µM. For the same molecule, the kinact/KI under setting [3] worked out at 81000 M⁻¹ s⁻¹.

Turning to `CC[C@H]1C(=O)N(C(C)=O)[C@@H]1Oc1ccccc1` (relative stereo) [Table I: H; C2 H5 (trans); OPh; COCH3], the Ki is 4.3 µM. For the same molecule, the kinact/KI under setting [3] is 5270 M⁻¹ s⁻¹. `CCCC1(CCC)C(=O)N(C(=O)NC(C)c2ccccc2)C1Oc1ccc(C(=O)O)cc1` (single isomer, unassigned) [Table IV: C3 H7; C3 H7; O-(4-COOHPh); drawing 47 (higher Rf isomer)]: for the setting “(per mole per second)”, the “kobs/I, second order rate constant of inactivation of the enzyme” value turned out to be 4324 M⁻¹ s⁻¹. Still for that read-out and setting: the same measure for `CCCC1(CCC)C(=O)N(C(=O)NC(C)c2ccccc2)C1Oc1ccc(C(=O)O)cc1` (single isomer, unassigned) [Table IV: C3 H7; C3 H7; O-(4-COOHPh); drawing 47 (lower Rf isomer)]: 1446 M⁻¹ s⁻¹. As to `CC[C@@]1(C)C(=O)N(C(=O)NCc2ccccc2)[C@H]1Oc1ccc(C(=O)O)cc1` [(3R,4S)-1-(benzylaminocarbonyl)-3-ethyl-3-methyl-4-(4-carboxy)phenoxyazetidin-2-one], the kinact/KI under setting [2] was 2000 M⁻¹ s⁻¹. Take `C=CC[C@@H](NC(=O)N1C(=O)C(CC)(CC)[C@@H]1Oc1ccc(CC(=O)O)cc1)c1ccc2c(c1)OCO2` [(4S)-3,3-diethyl-1-[(R)-α-allyl-(3,4-methylenedioxy)-benzylaminocarbonyl]-4-[(4-carboxymethyl)phenoxy]azetidin-2-one]: the kinact/KI under setting [6] came out at 605000 M⁻¹ s⁻¹. Take `CCC[C@@H](NC(=O)N1C(=O)C(CC)(CC)[C@@H]1Oc1ccc(CC(=O)O)cc1)c1ccc2c(c1)OCO2` [(4S)-3,3-diethyl-1-[(R)-α-n-propyl-(3,4-methylenedioxy)-benzylaminocarbonyl]-4[(4-carboxymethyl)-phenoxy]azetidin-2-one]: the kinact/KI under setting [6] was 867000 M⁻¹ s⁻¹. As for `CCC1C(=O)N(C(=O)c2ccccc2)C1C(C)=O` (stereo not drawn) [Table I: H; C2 H5 (trans); COCH3; COPh], the Ki worked out at 0.34 µM. The kinact/KI under setting [3] was 76600 M⁻¹ s⁻¹.

For the molecule `CCC1C(=O)N(C(C)=O)C1OC(C)=O` (centres unmarked) [Table I: H; C2 H5; OCOCH3; COCH3], the “ID50, effective dosage for 50% inhibition of the enzyme activity two minutes after time zero” value turned out to be 100 mg/L and the Ki was 0.36 µM. Besides, the kinact/KI under setting [3] is 15100 M⁻¹ s⁻¹. For the molecule `CCC1C(=O)NC1OC(C)=O` (centres unmarked) [Table I: H; C2 H5; OCOCH3; H], the “ID50, effective dosage for 50% inhibition of the enzyme activity two minutes after time zero” value is 15000 mg/L. Turning to `COC1C(=O)N(C(C)=O)C1C(=O)OCc1ccccc1` (centres unmarked) [Table I: H; CH3 O; COOCH2 C6 H5; COCH3], the “ID50, effective dosage for 50% inhibition of the enzyme activity two minutes after time zero” value turned out to be 2000 mg/L. Consider `CC(=O)OC1CC(=O)N1C(C)=O` (centres unmarked) [Table I: H; H; OCOCH3; COCH3], for which the “ID50, effective dosage for 50% inhibition of the enzyme activity two minutes after time zero” value is 3000 mg/L.

With `CC(=O)N1C(=O)CC1[S+](C)[O-]` (centres unmarked) [Table I: H; H; SOCH3; COCH3, 1-acetyl-4-methylsulfinylazetidine-2-one], the “ID50, effective dosage for 50% inhibition of the enzyme activity two minutes after time zero” value was determined as 10000 mg/L.

Turning to `CCCC1C(=O)N(C(C)=O)C1OC(C)=O` (centres unmarked) [Table I: H; n-propyl; OCOCH3; COCH3, 1-acetyl-4-acetoxy-3-n-propylazetidin-2-one], the “ID50, effective dosage for 50% inhibition of the enzyme activity two minutes after time zero” value is 10 mg/L. Consider `CCC1(CC)C(=O)N(C(=O)NCc2ccccc2)C1Oc1ccc(CC(N)C(=O)O)cc1` (centres unmarked) [Table II: C2 H5; C2 H5; drawing 36; CH2 Ph], for which the kinact/KI under setting [2] was found to be 2540 M⁻¹ s⁻¹.

The values are drawn from patent publication US5229381A, “Substituted azetidinones as anti-inflammatory and antidegenerative agents” (Merck & Co., Inc., priority 1991, dated 1993).
